Data reported in paper PMC5711933, “Intracellular biomass flocculation as a key mechanism of rapid bacterial killing by cationic, amphipathic antimicrobial peptides and peptoids” (Scientific Reports, 2017).
Where two headings read alike, the source gives them in different places. Marks after values point to notes of the source that are not given here. Non-standard residues stand in square brackets, D forms with d. Residues, ends and D or L forms follow the SMILES beside them. N(1S-Me-propyl)Gly = CC[C@H](C)NCC(=O)O; Nspe = C[C@H](NCC(=O)O)c1ccccc1; Nphe = O=C(O)CNCc1ccccc1; Nlys = NCCCCNCC(=O)O

How the values were obtained:
[1] = RP-HPLC elution (% ACN) as measure of hydrophobicity; assay type: physicochemical; settings: chromatographic hydrophobicity; gradient of 5–95% acetonitrile (ACN) over 45 minutes, C18 column, 0.2 mL/min; average of three replicates
E. coli ATCC 35218 [2] = experiment: Bacterial count by plating after treatment, before TEM sample preparation; assay type: cell-based; settings: 1 hour in PBS pH 7.4, control 1 × 10^8 CFU/mL
Protocol: E. coli ATCC 35218, grown overnight at 35 °C in Mueller-Hinton broth (MHB), were resuspended in 1X (150 mM) PBS, pH 7.4, and diluted to a concentration of 1 × 10^8 CFU/mL. Aqueous peptide/peptoid stock solutions were added to 1 mL aliquots of the suspension to the desired final concentration. After 1 hour, small volumes of each sample were serially diluted, plated, and incubated overnight at 35 °C, to be counted the following day. The remaining volume of each sample was centrifuged, and the pellet resuspended and enrobed in 5–10 µL of 2% low-melting agarose (gelling temperature 25° ± 5 °C) then drawn up into the tip of a Pasteur pipette. The solidified rods were extruded into fixative (2% glutaraldehyde, 2% paraformaldehyde, 50 mM PBS, pH 7.4). […] 50 nm thin sections of embedded samples were cut using a diamond knife, stained for 5 min in 5% aqueous uranyl acetate, then rinsed in H2O. Sections were examined in a JEOL 1230 TEM. Experimental conditions were each repeated in at least two independent trials. For each replicate of each sample, bacteria across the thin section were first surveyed to determine morphological characteristics representative of that sample, then images were captured of at least five bacteria displaying those morphologies with an emphasis on clean (i.e., orthogonal) transverse and/or longitudinal sections. Each image shown is thus representative of the ultrastructural characteristics observed in bacteria throughout a given sample and between replicates.

EGFP-Luc plasmid = experiment: DNA retardation assay (gel electrophoresis); assay type: binding; settings: EGFP-Luc plasmid in TBS, complexes 20 min at room temperature, 1–2% agarose gel
Protocol: DNA retardation was analyzed by gel electrophoresis. Peptoid/peptide-DNA complexes were formed by adding 10 µL of peptide/peptoid solution of varying concentrations to 10 µL DNA solution (EGFP-Luc plasmid in Tris-buffered saline (TBS) buffer), and the resulting solution was mixed by gentle aspiration. Complexes were incubated for 20 min at room temperature. After complex formation, 20 µL of each sample were loaded onto a 1–2% agarose gel in Tris/borate/EDTA (TBE) buffer, which ran at 120 V for 15 min. DNA bands on the gel were visualized under UV light by ethidium bromide staining.

[3] = system: Bioluminescent P. aeruginosa; assay type: cell-based, Pseudomonas aeruginosa; settings: 12.5 µM, LB, 37 °C; for Activity in bioluminescence kinetics assay (in words): up to 2 h
Protocol: The decrease in bioluminescence at 37 °C was measured for a range of concentrations from 0 – 100 μM (Supp. Figs. S6 and S7).
Bioluminescent P. aeruginosa [73] was grown at 37 °C in Luria-Bertani (LB) broth. […] In a 96-well plate, 50 µL of P. aeruginosa solution (1 × 10^6 CFU/mL) was added to 50 µL of antimicrobial solution, and the bioluminescence was measured using an IVIS imaging system (a Xenogen product from Caliper Life Sciences, Hopkinton, MA) at 10 min intervals for 2 h. The reported values are the average of three independent experiments with two replicates each.

P. aeruginosa = experiment: Bacterial plating of P. aeruginosa (CFU); assay type: cell-based, Pseudomonas aeruginosa; settings: 12.5 µM, LB, 37 °C, average of three replicates
Protocol: To further explore the mechanism of action, we studied the killing kinetics of AMPs, ampetoids, and conventional antibiotics against luciferase-expressing Pseudomonas aeruginosa, another Gram-negative bacterium, against which these peptoids have previously proven to be effective[61]. The decrease in bioluminescence at 37 °C was measured for a range of concentrations from 0 – 100 μM (Supp. Figs. S6 and S7).
The bacterial counts were determined by plating serial dilutions of samples on LB plates and counting bacterial colonies. The reported values are the average of three replicates.

[4] = system: E. coli bacterial ribosomes; experiment: Aggregation of bacterial ribosomes (optical density at 550 nm); assay type: biochemical; settings: 1 µM ribosome solution, antimicrobial up to 800 µM, 10 min, λ = 550 nm
Protocol: In a microcentrifuge tube, 5 µl of 1 µM purified bacterial ribosome solution (~40X diluted (v/v) from their intracellular concentration in bacterial cytosol)[62] was incubated with 5 µl of antimicrobial solution in a concentration range of 0–800 µM for 10 min. The absorbance of the solution was measured by UV-Vis spectroscopy at λ = 550 nm by a spectrophotometer (ND-1000, Thermo Scientific, Wilmington, DE). The values are reported as the average of three independent experiments with three replicates each.

E. coli ATCC 35218 [5] = assay type: cell-based; settings: CAMHB, 35 °C, 16 h, final 5 × 10^5 CFU/mL, reproducible between three independent replicates
Protocol: MICs were determined according to CLSI M7-A6 protocols in a 96-well microtiter plate. In test wells, 50 μL bacterial inoculum (1 × 10^6 CFU/ml) in cation-adjusted Mueller-Hinton broth (CAMHB) was added to 50 μL peptoid solution in CAMHB (prepared by 1:2 serial dilutions). Positive controls contained 50 μL inoculum and 50 μL CAMHB without peptoid. […] MIC values reported were reproducible between three independent experimental replicates, each consisting of two parallel trials.

Erythrocytes = experiment: Hemolysis assay; assay type: cell-based; settings: human erythrocytes in PBS pH 7.4, 1 h at 37 °C, A350; three independent replicates (two for LL-37 and fowlicidin-1)
Protocol: The plate was then centrifuged at 1200 g for 15 min, 100 μL of the supernatant from each well transferred to a fresh microtiter plate, and A350 measured.

E. coli ATCC 35218 [6] = experiment: Bacterial count by plating after 1-hour treatment, before SEM sample preparation; assay type: cell-based; settings: 1 hour in PBS, control 5 × 10^5 CFU/mL
Protocol: E. coli was treated with 10 μM peptide or peptoid for 1 hour in phosphate-buffered saline (PBS). […] We used 10 μM peptide/peptoid for all samples since it is near the MICs of the majority of the oligomers.
Before fixation, aliquots of each samples were serially diluted and plated on agar to determine the concentration of live bacteria remaining after the 1-hour treatment. […] (1) SEM samples were treated in PBS (as discussed above), whereas MIC assays are performed in cation-adjusted Mueller-Hinton broth. AMPs and ampetoids are known to interact with ions in the media (for example, when switching from plain Mueller-Hinton broth to cation-adjusted Mueller-Hinton broth)[1], so differences in activity may be due to changes in media composition. (2) the treatments were for one hour only, whereas MICs are determined after 16 hours of growth. […] (3) Some of these compounds may cause inhibition of growth without causing bacterial cell death (i.e., they are bacteriostatic—which is what the MIC indicates—rather than bactericidal—which is determined by plating and counting colonies). […]
Overnight cultures of E. coli ATCC 35218 were centrifuged for 10 min and 2500 × g at room temperature, then resuspended in PBS. […] Bacterial concentrations of the diluted suspensions were calculated from their OD590 values using optical density curves derived from pre-determined concentrations. […]

[7] = average of three independent experiments with two replicates each

Row | Compound | % ACN at RP-HPLC elution [1] | TEM: Bacterial count after 10 µM treatment (% of control) (E. coli ATCC 35218 [2]) | TEM: Bacterial count after 100 µM treatment (% of control) (E. coli ATCC 35218 [2]) | Retardation assay: mass of compound required to completely retard migration of 1 µg of DNA (EGFP-Luc plasmid) | Killing of bacteria within 10 minutes (CFU plating, in words) (P. aeruginosa) | Aggregation of ribosomes (in words) [4] | also measured
1 | NCCCCNCC(=O)N(CC(=O)N(CC(=O)N(CCCCN)CC(=O)N(CC(=O)N(CC(=O)N(CCCCN)CC(=O)N(CC(=O)N(CC(=O)N(CCCCN)CC(=O)N(CC(=O)N(CC(N)=O)Cc1ccccc1)Cc1ccccc1)Cc1ccccc1)Cc1ccccc1)Cc1ccccc1)Cc1ccccc1)Cc1ccccc1)Cc1ccccc1 [1 achiral] (H-[Nlys][Nphe][Nphe][Nlys][Nphe][Nphe][Nlys][Nphe][Nphe][Nlys][Nphe][Nphe]-NH2) | 60.4% | 100 % of control | 0.03 % of control | 1.5 µg | – | – | Decrease in bioluminescence within 10 min ([3]; 10 min, average of three independent experiments with two replicates each): ~ 99.9%
2 | C[C@@H](c1ccccc1)N(CC(N)=O)C(=O)CN(CCCCN)C(=O)CN(CCCCN)C(=O)CN(C(=O)CN(C(=O)CN(CCCCN)C(=O)CN(C(=O)CN(CCCCN)C(=O)CN(CCCCN)C(=O)CN(C(=O)CN(C(=O)CNCCCCN)[C@@H](C)c1ccccc1)[C@@H](C)c1ccccc1)[C@@H](C)c1ccccc1)[C@@H](C)c1ccccc1)[C@@H](C)c1ccccc1 [1-NLys5,11] (H-[Nlys][Nspe][Nspe][Nlys][Nlys][Nspe][Nlys][Nspe][Nspe][Nlys][Nlys][Nspe]-NH2; N-terminus and C-terminus assumed) | 51.2% | 100 % of control | 30 % of control | 1.0 µg | – | – | –
3 | C[C@@H](c1ccccc1)N(CC(N)=O)C(=O)CN(C(=O)CN(CCCCN)C(=O)[C@@H]1CCCN1C(=O)CN(C(=O)CN(CCCCN)C(=O)CN(C(=O)CN(C(=O)CN(CCCCN)C(=O)CN(C(=O)CN(C(=O)CNCCCCN)[C@@H](C)c1ccccc1)[C@@H](C)c1ccccc1)[C@@H](C)c1ccccc1)[C@@H](C)c1ccccc1)[C@@H](C)c1ccccc1)[C@@H](C)c1ccccc1 [1-Pro9] (H-[Nlys][Nspe][Nspe][Nlys][Nspe][Nspe][Nlys][Nspe]P[Nlys][Nspe][Nspe]-NH2) | 62.6% | – | – | – | – | – | Decrease in bioluminescence at 2 h [3, 7]: ~ 20%
4 | O=C(O)c1cn(C2CC2)c2cc(N3CCNCC3)c(F)cc2c1=O [Ciprofloxacin] | – | – | – | – | did not kill bacteria | no aggregation | Decrease in bioluminescence at 1 h ([3]; 1 h, average of three independent experiments with two replicates each): ~ 97%
5 | CC[C@H](C)[C@H](NC(=O)[C@H](CCCCN)NC(=O)[C@H](CCC(=O)O)NC(=O)[C@H](CCCCN)NC(=O)[C@H](CO)NC(=O)[C@H](CCCCN)NC(=O)[C@H](CCCNC(=N)N)NC(=O)[C@H](Cc1ccccc1)NC(=O)[C@H](Cc1ccccc1)NC(=O)[C@H](CC(=O)O)NC(=O)CNC(=O)[C@H](CC(C)C)NC(=O)[C@@H](N)CC(C)C)C(=O)NCC(=O)N[C@@H](CCCCN)C(=O)N[C@@H](CCC(=O)O)C(=O)N[C@@H](Cc1ccccc1)C(=O)N[C@@H](CCCCN)C(=O)N[C@@H](CCCNC(=N)N)C(=O)N[C@H](C(=O)N[C@H](C(=O)N[C@@H](CCC(N)=O)C(=O)N[C@@H](CCCNC(=N)N)C(=O)N[C@H](C(=O)N[C@@H](CCCCN)C(=O)N[C@@H](CC(=O)O)C(=O)N[C@@H](Cc1ccccc1)C(=O)N[C@@H](CC(C)C)C(=O)N[C@@H](CCCNC(=N)N)C(=O)N[C@@H](CC(N)=O)C(=O)N[C@@H](CC(C)C)C(=O)N[C@H](C(=O)N1CCC[C@H]1C(=O)N[C@@H](CCCNC(=N)N)C(=O)N[C@H](C(=O)N[C@@H](CCC(=O)O)C(=O)N[C@@H](CO)C(=O)O)[C@@H](C)O)C(C)C)[C@@H](C)CC)C(C)C)[C@@H](C)CC [LL-37, reference compound] | – | – | – | – | – | – | E. coli ATCC 35218 MIC (E. coli ATCC 35218 [5]): 12.5 µM; HD10 (hemolytic dose; concentration for 10% hemolysis) (Erythrocytes): >100/>100^§ µM; HD50 (hemolytic dose; concentration for 50% hemolysis) (Erythrocytes): >100/>100^§ µM
6 | CC[C@H](C)N(CC(N)=O)C(=O)CN(C(=O)CN(CCCCN)C(=O)CN(C(=O)CN(C(=O)CN(CCCCN)C(=O)CN(C(=O)CN(C(=O)CN(CCCCN)C(=O)CN(C(=O)CN(C(=O)CNCCCCN)[C@@H](C)CC)[C@@H](C)CC)[C@@H](C)CC)[C@@H](C)CC)[C@@H](C)CC)[C@@H](C)CC)[C@@H](C)CC [compound 2] (H-[Nlys][N(1S-Me-propyl)Gly][N(1S-Me-propyl)Gly][Nlys][N(1S-Me-propyl)Gly][N(1S-Me-propyl)Gly][Nlys][N(1S-Me-propyl)Gly][N(1S-Me-propyl)Gly][Nlys][N(1S-Me-propyl)Gly][N(1S-Me-propyl)Gly]-NH2) | 52.4% | 100 % of control | 100 % of control | >145^§ µg | – | did not cause aggregation | E. coli ATCC 35218 MIC (E. coli ATCC 35218 [5]; listed as peptoid 2): > 100 µM; SEM: Bacterial count after 10 µM treatment (% of control) (E. coli ATCC 35218 [6]): 100 % of control; Activity in bioluminescence kinetics assay (in words) [3]: completely ineffective
7 | CC[C@H](C)[C@H](NC(=O)CN)C(=O)NCC(=O)N[C@@H](C)C(=O)N[C@H](C(=O)N[C@@H](CC(C)C)C(=O)N[C@@H](CCCCN)C(=O)N[C@H](C(=O)N[C@@H](CC(C)C)C(=O)N[C@H](C(=O)N[C@H](C(=O)NCC(=O)N[C@@H](CC(C)C)C(=O)N1CCC[C@H]1C(=O)N[C@@H](C)C(=O)N[C@@H](CC(C)C)C(=O)N[C@H](C(=O)N[C@@H](CO)C(=O)N[C@@H](Cc1c[nH]c2ccccc12)C(=O)N[C@H](C(=O)N[C@@H](CCCCN)C(=O)N[C@@H](CCCNC(=N)N)C(=O)N[C@@H](CCCCN)C(=O)N[C@@H](CCCNC(=N)N)C(=O)N[C@@H](CCC(N)=O)C(=O)N[C@@H](CCC(N)=O)C(N)=O)[C@@H](C)CC)[C@@H](C)CC)[C@@H](C)O)[C@@H](C)O)C(C)C)C(C)C [melittin, reference compound] | – | – | – | – | – | – | E. coli ATCC 35218 MIC (E. coli ATCC 35218 [5]): 12.5 µM
8 | CN(C)[C@@H]1C(O)=C(C(N)=O)C(=O)[C@@]2(O)C(O)=C3C(=O)c4c(O)cccc4[C@@](C)(O)[C@H]3C[C@@H]12 [tetracycline] | – | – | – | – | did not kill bacteria | no aggregation | Decrease in bioluminescence at 2 h [3, 7]: ~ 97%
9 | oligomycin A | – | – | – | – | did not kill bacteria | no aggregation | Activity in bioluminescence kinetics assay (in words) [3]: inactive
